Experimental data from US8318787B2, “Prodrugs of (3,5-bis(4-fluorophenyl)tetrahydro-1H-oxazolo[3,4-C]oxazol-7A-yl)methanol and derivatives thereof” (University of Kansas, priority 2005, dated 2012).

Experiments:
primary cortical neurons = assay: Neuroprotection of primary cortical neurons exposed to Aβ peptides (Live/Dead assay); format: cell-based; details: Rattus norvegicus, Primary cortical neuron, Aβ25-35, 48 hours, read-out: EC50 (concentration that lead to a 50% increase in neuronal survival in the presence of the Aβ peptide)
Description: This example illustrates the neuroprotective effects of TH-237A in neuronal cells after exposure to Aβ peptides. To prepare the primary neurons, dissociated cortical cell cultures were established from embryonic day 18 rat fetuses recovered from pregnant Sprague Dawley rats (Harlan Sprague Dawley, Inc., Indianapolis, Ind.) as described previously (Michaelis et al., 1994). Pups were delivered by cesarean section while the dam was anesthetized with pentobarbital (140 mg/kg, i.p.), and the brains were recovered according to National Institutes of Health-approved protocols. After the final precipitation step, neurons were suspended in fresh DMEM/F12 (Sigma Chemical Co. St. Louis, Mo.) with 10% fetal bovine serum (Atlanta Biologicals, Atlanta, Ga.) and plated at a density of 2.5×10^5 cells in 35 mm glass bottom microwell dishes (Mat-Tek Co., Ashland, Mass.), coated with poly-D-lysine. Serum-containing medium was removed after 24 hours, and the cells were maintained in serum-free DMEM/F12 containing the N2 supplements. […]
After five days in culture, the primary neurons were exposed to either Aβ25-35 or Aβ1-42 in the presence or absence of concentrations of TH-237A ranging from 0.5 to 60 nM. […] Each batch of Aβ peptide was analyzed for β-sheet formation by circular dichroism, but no effort was made to separate oligomers from fibrils. […]
The effects of the Aβ peptides and TH-237A were primarily determined by monitoring neuronal cell survival using the Live/Dead assay as previously described (Michaelis et al., 1998; Michaelis et al., 2005). […] The number of viable (green) and dead (red) neurons was determined by counting the cells, and this was done in 6-12 microscopic fields per culture dish in duplicate dishes for each treatment. […] Thus, approximately 1500 neurons were scored under each treatment condition. The fraction of viable cells in each field was calculated based on the total number of cells counted in each field. Raw data from each experiment were combined and the significance of differences between cultures exposed to various treatments was determined using Student's t test. […]

[1] = Oral absorption of parent compound and prodrug (plasma levels); format: in vivo
Description: The prodrug compound (3,5-bis(4-fluorophenyl)tetrahydro-1H-oxazolo[3,4-C]oxazol-7a-yl)methanol phosphate was studied for oral absorption. A formulation of (3,5-bis(4-fluorophenyl)tetrahydro-1H-oxazolo[3,4-C]oxazol-7a-yl)methanol was prepared into a suspension and into a composition with Captisol, and the prodrug thereof was formulated into an aqueous solution. Oral absorption behavior of the parent compound is depicted in FIG. 8. As previously mentioned, the systemic exposure of the parent compound following oral administration of the parent compound as a suspension is limited compared to a solution of the parent compound administered in Captisol. The systemic exposure of the prodrug compound following oral administration of an aqueous solution of the prodrug compound is depicted in FIG. 9.

[2] = tested on: P-glycoprotein efflux transporter; assay: Rhodamine 123 accumulation assay in bovine brain microvessel endothelial cells; format: in vitro ADME; details: BBMECs
Description: First, a rhodamine 123 assay was used for to assess uptake of the test compound in brain endothelial cells. Bovine brain microvessel endothelial cells (“BBMECs”) were isolated and grown in primary culture on 12 well cluster dishes at a density of 50,000 cells/cm^2 essentially as described previously (Rice et al., 2005). The culture medium was changed every other day after seeding until a confluent monolayer was formed as determined by light microscopy. Experiments were performed in phosphate buffered saline supplemented with calcium and glucose (PBSA), pH 7.4. Briefly, the growth medium was first aspirated off, and the cells were rinsed three times with pre-warmed (37° C.) PBSA. […] Cell lysates were assayed using a microplate fluorescence reader (Bio-Tek Instruments, Winooski, Vt.) at excitation/emission wavelengths of 485 nm/520 nm, then quantified against standard curves of rhodamine 123 in lysing solution. The fluorescence of the cell lysates was corrected for autofluorescence of untreated cells. The protein content of each monolayer was then determined using the BCA protein assay reagent kit. Results were expressed as total nanomoles of rhodamine 123 accumulation per mg cellular protein for agents tested at 10 μM.

[3] = In vivo pharmacokinetics in plasma and brain; set-up: species or system Male Balb/C mice; details: mice, 10 mg/Kg in Captisol, i.v. or s.c.
Description: In this example, the pharmacokinetics of TH-237A were evaluated in vivo. Male Balb/C mice were dosed with TH-237A (10 mg/Kg in Captisol®) via either an i.v. injection into the tail vein or via subcutaneous (sc) injection. At multiple time points ranging from 0 to 240 minutes, 12 mice (n=6, i.v.; n=6, s.c.) were anesthetized with isoflurane, and blood was collected via cardiac puncture. Mice were perfused with 30 mL of saline to wash remaining blood from the vessels, and the brain tissue was harvested. The levels of TH-237A in plasma and brain were quantified using mass spectrometric methods.
Sample preparations. Brain homogenate was prepared in a 1:4 ratio with deionized water. A sonic dismembrator was pulsed at 30% power until the sample was liquified. Aliquots of mouse plasma (0.05 mL) or mouse brain homogenates (0.25 g) were spiked with 50 ng of internal standard (deuterated TH-237A) and vortexed for 10 seconds. The TH-237A and internal standard were extracted using 1.3 mL of methyl t-butyl ether. Samples were vortexed for 5 minutes and centrifuged. The supernatant was transferred to 2 mL centrifuge tubes and evaporated to dryness. The sample was reconstituted in 0.2 mL of sample solvent, vortexed and centrifuged before a 10 uL aliquot was injected on to the LC/MS system for analysis.
Analysis of TH-237A. The levels of the drug in the samples were determined by means of HPLC/MS. […]

in vitro = details: bovine, pH 7.4
Description: The BBMECs were grown on 0.4 μm polycarbonate membranes. […] Transport studies were performed in pH 7.4 standard buffer solutions, consisting of either Hank's balanced salt solution (HBSS) or phosphate buffered saline (PBS) supplemented with 0.63 mM CaCl2, 0.74 mM MgSO4, 5.3 mM glucose and 0.1 mM ascorbic acid (PBSA). Briefly, all studies were performed in 3 ml of PBSA in each donor and receiver chamber of the side-by-side diffusion chambers and stirred at 600 rpm at 37° C. The cells were allowed to equilibrate in PBSA for 30 minutes prior to each experiment and oriented such that apical or blood side of the cells face the donor chamber and the basolateral or brain side of the cells adhere to the polycarbonate membranes and face the receiver chamber of the diffusion apparatus. At each time point, a 100 μl sample was taken from the receiver compartment and immediately replaced with an equal volume of PBSA. The transport studies were performed in the presence or absence of CsA (5-10 μM). Monolayers were checked for trypan blue exclusion after experiments as well to assess general cell viability. The permeability of all monolayers used in these experiments was monitored for [^14C] sucrose leakage as a measure of potential TH-237A-induced loss of integrity. The radioactivity was quantified using liquid scintillation spectrometry.

Structure (SMILES)	EC50 (primary cortical neurons) [nM]	melting point [°C]	other results
OCC12CO[C@H](c3ccc(F)cc3)N1[C@@H](c1ccc(F)cc1)OC2 (racemic) [TH-236B, (3R,5R) and (3S,5S) (3,5-bis(4-fluorophenyl)tetrahydro-1H-oxazolo[3,4-c]oxazol-7a-yl)methanol]	~40		
OCC12CO[C@H](c3ccc(C(F)(F)F)cc3)N1[C@@H](c1ccc(C(F)(F)F)cc1)OC2 (racemic) [TH-242B, (3R,5R) and (3S,5S) (3,5-bis(4-trifluoromethylphenyl)tetrahydro-1H-oxazolo[3,4-c]oxazol-7a-yl)methanol]		120	
OCC1(CO)COC(c2ccc(F)cc2)N1 (racemic) [TH-OPEN, (R/S)-(2-(4-fluorophenyl)oxazolidine-4,4-diyl)dimethanol]	~50	89	
OCC1(CO)COC(c2ccc(C(F)(F)F)cc2)N1 (racemic) [TH-OPENTFM, (R/S)-(2-(4-(trifluoromethyl)phenyl)oxazolidine-4,4-diyl)dimethanol]		98	
O=P([O-])([O-])OCC12COC(c3ccc(F)cc3)N1C(c1ccc(F)cc1)OC2.[Na+].[Na+] (stereo not shown) [(3,5-bis(4-fluorophenyl)tetrahydro-1H-oxazolo[3,4-C]oxazol-7a-yl)methanol phosphate]			systemic exposure of drug from aqueous prodrug solution relative to Captisol solution of the parent compound ([1]; aqueous solution of prodrug): equivalent or better
OCC12COC(c3ccc(F)cc3)N1C(c1ccc(F)cc1)OC2 (stereo not shown) [(3,5-bis(4-fluorophenyl)tetrahydro-1H-oxazolo[3,4-C]oxazol-7a-yl)methanol]			systemic exposure after oral administration as a suspension compared to solution in Captisol ([1]; suspension): limited
OC[C@]12CO[C@H](c3ccc(F)cc3)N1[C@H](c1ccc(F)cc1)OC2 [TH-237A, (3R,5S,7as)-(3,5-bis(4-fluorophenyl)tetrahydro-1H-oxazolo[3,4-c]oxazol-7a-yl)methanol]	5		effect on rhodamine 123 accumulation / P-glycoprotein substrate [2]: not a substrate for the P-glycoprotein efflux transporter; plasma half-life [3]: on the order of hours; amount of drug entering the plasma ([3]; regardless of route): a very significant amount of the drug enters the plasma; Papp (in vitro): 270 ×10⁻⁶ cm/s
OC[C@]12CO[C@H](c3ccc(C(F)(F)F)cc3)N1[C@H](c1ccc(C(F)(F)F)cc1)OC2 [TH-242A]		102	
